Measurements taken from paper PMC8399901, “Effects of a Peripherally Restricted Hybrid Inhibitor of CB1 Receptors and iNOS on Alcohol Drinking Behavior and Alcohol-Induced Endotoxemia” (Molecules, 2021).

Key:
CB1R [1] = target: T1, CB1R (Mus musculus, UniProt P47746); assay: CP 55,940-induced catalepsy (bar test) in mice; type: in vivo; details: CP55,940 0.1–3 mg/kg i.p.
T1 construct: from tissue; host or cells: living C57BL/6J mice (whole animal; brain and peripheral tissues)
Method: (§1) Drugs were applied in a volume of 1 μL over the course of 2 min via 33 g internal injector (P1 Technologies, Roanoke, VA, USA) connected with the 2 µL precision glass Hamilton syringe (USA) by a PE-20 tubing (Fisher Scientific, Hampton, NH, USA). The infusion rate and volume were controlled through the use of the syringe pump (model PHD 22/2000, Harvard Apparatus, Cambridge, MA, USA). Following 2 min infusion, injectors were left in place for additional 3 min to allow a passive diffusion of drugs into the tissue.
(§2) Catalepsy was assessed using the bar test described with modifications. Mice were removed from home cages and their forepaws were placed on a horizontal stainless-steel rod, 0.5 cm in diameter, positioned 3.5 cm above the bench surface. […] The arbitrary cutoff time for cataleptic mice was 60 s. Hypothermia was then evaluated by measuring core body temperature with a rectal probe (Ellab Inc., Denver, CO, USA).
(§3) To determine a working range of CP 55,940 doses that induce catalepsy and hypothermia through CB1R, a dose–response curve for CP 55,940 was constructed first. Pharmacologically naïve Cnr1^−/− and wild-type littermates were injected with increasing doses of CP 55,940 (0.1, 0.3, 1, and 3 mg/kg; i.p.) at 30 min intervals. Hypothermia and catalepsy tests were performed every 30 min before ordering the next dose of CP 55,940.

CB1R [2] = target: T1, CB1R; assay: CP 55,940-induced hypothermia in mice; type: in vivo; details: CP55,940 0.1–3 mg/kg i.p.
Method: as §1, §2, §3

CB1R [3] = target: T1, CB1R; assay: Elevated plus maze test of anxiety-related behavior; type: in vivo; details: 1 µg i.c.v., tested 1 h later
Method: as §1
Anxiety-related behavior was assessed using the elevated plus maze (EPM) test as described, with modifications. C57BL/6J mice were allowed to acclimate in their home cages for 2 h prior to the procedure. Animals received i.c.v infusion of JD5037 1 µg or vehicle and were tested in the EPM one hour later.
Mice were given 5 min to explore an elevated platform (72 cm above the floor) consisting of two opposing open and closed arms (each 30 × 5 cm) crossing each other. Illumination in the open and closed arms was 20 and 90 Lux, respectively. Mice were placed individually in the center of the platform (5 × 5 cm) facing an open arm. The behavior of each mouse was monitored by a computer-assisted video tracking system EthoVision XT (Noldus, Leesburg, VA, USA). The tested categories include total distance (cm) and average velocity (cm/s) of the run in the entire maze, cumulative duration (% of total time) spent in closed and open arms, number of entries into each closed and open arm of the maze (in-zone frequency). Arm entries were defined as crossing of the center point (located at approximately two thirds of the mouse body) into the arm. Number of entries, time spent in the open or closed arms, and distance travelled were measured by an automated HindSight software system (Hindsight, version 1.4, Hindsight Software Solutions Inc., Frisco, TX, USA).

CB1R [4] = target: T1, CB1R; parameters: method as in PMID 31105045; details: cited from earlier work
CB1R [5] = target: T1, CB1R; assay: Drinking-in-the-dark voluntary ethanol intake (20% ethanol, 4 h); type: in vivo; details: for alcohol drinking after oral gavage: wild-type/C57BL/6J mice, oral gavage day 4 (rimonabant 10 mg/kg; JD5037 3 mg/kg; S-MRI-1867 3, 10 mg/kg; R-MRI-1867 10 mg/kg)
Method: as §1
The procedure was performed as described, with modifications. Mice were individually housed and acclimated to the room for 5–7 days before testing and randomly assigned to treatment groups. Starting 3 h into the dark cycle, water bottles were replaced with 20% ethanol in 25 × 100 mm glass tubes fitted with metal sippers, Access to the ethanol solution was limited to 4 h every day. […] Immediately after the drinking session, mice were deeply anesthetized with isoflurane. Blood was collected by traumatic avulsion of the orbital globe and kept for 10 min at room temperature in Eppendorf tubes followed by centrifugation at 3000× g for 10 min at 4 °C. Serum was collected and kept frozen in sealed vials at −80 °C until analysis.

CB1R [6] = target: T1, CB1R; assay: Two-bottle free-choice alcohol preference test (15% ethanol); type: in vivo; details: for alcohol preference and intake: daily oral gavage days 6–10 (S-MRI-1867 3, 10 mg/kg; R-MRI-1867 10 mg/kg), male C57BL/6J mice
Method: The procedure was performed as described, with modifications. Animals were individually housed and acclimated to the paradigm for 5–7 days by having access to two identical water bottles and handled daily to minimize the stress associated with drug testing. Animals were first subjected to a gradual increase in ethanol concentration in a drinking bottle (3%, 6%, 9%, 12%, 15%), while the other bottle contained water. The position of the bottles was changed every day, and alcohol and water bottles were replaced every 4 days. Once alcohol concentration reached 15%, animals remained on the paradigm for 10 days. Starting on day 2, mice received vehicle by oral gavage for 4 days, followed by a daily treatment with the global or peripheral CB1 antagonist (S-MRI-1867 1, 3, 10 mg/kg; R-MRI-1867 10 mg/kg,) or vehicle (control group) for another 5 days, one hour before the dark period. All animals were sacrificed for blood and tissue collection 12–16 h after treatment.

CB1R [7] = details: cited from earlier work
iNOS = target: T2, iNOS (Mus musculus, UniProt P29477); assay: Serum endotoxin in portal vein after acute ethanol intoxication; type: in vivo; details: 10 mg/kg oral gavage 30 min before 6 g/kg ethanol intragastric
T2 construct: from tissue; host or cells: living C57BL/6J mice (whole animal)
Method: The acute intoxication was performed on 8-week-old C57BL/6J mice as developed by, with modifications. […] The animals were fasted overnight. On the day of the experiment, they were transferred to the procedure room and allowed to acclimate to the new environment for 2 h while remaining in their home cages. Animals were divided into six treatment groups. Each mouse received S-MRI-1867 10 mg/kg or R-MRI-1867 10 mg/kg or vehicle by oral gavage, followed 6 g/kg ethanol (30% w/v) or saline by the same administration route 30 min later. Mice were anaesthetized by isoflurane 90 min later and sacrificed for blood withdrawal and tissue collection. To determine endotoxin levels, blood was drawn aseptically from the portal vein without anticoagulant and clotted for 30 min at room temperature. Samples were then centrifuged at 2000× g for 15 min at room temperature. Serum was pipetted off aseptically into new sterile vials and kept frozen at −80 °C until analysis. For the collection of tissue specimens, the entire alimentary tract was removed and cleaned from the mesentery from mice treated with S-MRI-1867 and saline. Stomach and ~5 cm segments of duodenum, jejunum, ileum, and colon were dissected out, flushed three times with 20 mL ice-cold PBS, and kept in −80 °C freezer till analysis.
Serum samples were thawed and diluted 1:5 with sterile water. […]

[8] = CB1R-deficient (Cnr1−/−) mice, apart from the highest dose (3 mg/kg)
[9] = wild-type mice, cumulative at 30 min intervals

T1 sequence (P47746 whole entry): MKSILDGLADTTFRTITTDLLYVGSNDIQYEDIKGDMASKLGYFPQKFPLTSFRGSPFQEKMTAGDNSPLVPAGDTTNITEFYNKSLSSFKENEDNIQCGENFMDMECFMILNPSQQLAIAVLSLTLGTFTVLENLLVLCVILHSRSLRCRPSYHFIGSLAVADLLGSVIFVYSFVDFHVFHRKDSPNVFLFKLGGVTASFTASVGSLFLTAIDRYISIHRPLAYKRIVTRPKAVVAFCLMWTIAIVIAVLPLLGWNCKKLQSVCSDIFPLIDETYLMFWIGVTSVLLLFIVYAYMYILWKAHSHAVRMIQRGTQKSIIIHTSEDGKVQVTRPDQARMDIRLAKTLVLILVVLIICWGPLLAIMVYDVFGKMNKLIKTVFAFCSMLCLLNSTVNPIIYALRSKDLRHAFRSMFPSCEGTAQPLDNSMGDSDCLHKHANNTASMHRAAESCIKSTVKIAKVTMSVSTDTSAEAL

CCCCCCC(C)(C)c1ccc([C@@H]2C[C@H](O)CC[C@H]2CCCO)c(O)c1 [CP55,940]
cataleptic behavior (CB1R [1]; [8]): completely insensitive to treatment
cataleptic behavior (CB1R [1]; [9]): cataleptic behavior
decrease in body temperature (hypothermia) (CB1R [2]; [8]): completely insensitive to treatment
decrease in body temperature (hypothermia) (CB1R [2]; [9]): dose-dependent decrease in body temperature

CC(C)[C@H](N=C(NS(=O)(=O)c1ccc(Cl)cc1)N1C[C@H](c2ccccc2)C(c2ccc(Cl)cc2)=N1)C(N)=O [JD5037]
velocity in elevated plus maze (CB1R [3]; 5 min run, n = 6, mean ± s.e.m., vehicle 4.0 ± 0.4): 2.4 ± 0.4 cm/s
total distance traveled in elevated plus maze (CB1R [3]; 5 min run, n = 6, mean ± s.e.m., vehicle 1189.0 ± 111.6): 740.5 ± 130.6 cm
movement between the two closed arms (frequency) (CB1R [3]; vs vehicle): moved less frequently between the two closed arms
open arm entries and exploration (CB1R [3]; vs vehicle): failure to enter open arms
time spent in closed arms (CB1R [3]; vs vehicle): stayed much longer in the closed arms
effect on alcohol drinking in CB1R-deficient mice (CB1R [4]): did not occur in CB1R-deficient mice
alcohol drinking after i.c.v. infusion (CB1R [5]; i.c.v. on day 4, one hour before dark period (rimonabant 2 µg; JD5037 1 µg)): ineffective in reducing alcohol drinking
alcohol drinking after oral gavage (CB1R [5]): effectively reduced alcohol drinking

C/C(N)=N/C(=N\S(=O)(=O)c1ccc(C(F)(F)F)cc1)N1C[C@@H](c2ccccc2)C(c2ccc(Cl)cc2)=N1 [R-MRI-1867]
alcohol preference and intake (CB1R [6]): remained unaffected
alcohol drinking after oral gavage (CB1R [5]): unaffected
CB1R activity (CB1R [7]): CB1R inactive
alcohol-induced increase in plasma levels of LPS (portal serum endotoxin) (iNOS): similarly inhibited

CC(N)=NC(=NS(=O)(=O)c1ccc(C(F)(F)F)cc1)N1C[C@H](c2ccccc2)C(c2ccc(Cl)cc2)=N1 [S-MRI-1867]
alcohol preference and intake (CB1R [6]): effective in reducing alcohol preference and intake
total liquid consumption or food intake (CB1R [6]; daily oral gavage days 6–10, S-MRI-1867 3, 10 mg/kg): without affecting
alcohol drinking after oral gavage (CB1R [5]): inhibited alcohol consumption in a dose-dependent fashion
CB1R inhibitory potency (CB1R [7]): nanomolar
alcohol-induced increase in plasma levels of LPS (portal serum endotoxin) (iNOS): similarly inhibited
